Bridges are numbered along the chain shown (N, C = ends). Where no end group is shown, it is not given here.
Legend:
glioma F98 cells = test: Cell penetration of Cy5-labeled peptides by flow cytometry (FACS); format: cell-based, rat; conditions: 2 h; for fold decrease in cell penetration efficacy relative to MCaUF1-9-C-Cy5: 3 µM, flow cytometry
Protocol: Undifferentiated malignant glioma rat (F98) cell line (from ATCC) was maintained at 37 °C in 5% CO2 in DMEM/F-12 nutrient medium (Invitrogen, Cergy Pontoise, France) supplemented with 2% (v/v) heat-inactivated fetal bovine serum (Invitrogen) and 100 µg/mL streptomycine and 100 units/mL penicillin (Invitrogen).
F98 cells were incubated with various concentrations of Cy5-labeled peptides in DMEM/F-12 culture medium without serum at 37 °C for 2 h. The cells were then washed with PBS to remove excess extracellular peptide and treated with 0.48 mM versene (Invitrogen) for 5 min at 37 °C to detach cells from the surface, and centrifuged at 200 g in DMEM/F-12 culture medium before suspension in PBS. For experiments concerning endocytosis inhibitors, F98 cells were initially preincubated in DMEM/F-12 culture medium without serum for 30 min at 37 °C with different inhibitors of endocytosis: (i) 100 µM amiloride, (ii) 5 µg/mL cytochalasin D (10 µM), (iii) 20 µM nocodazole, or (iv) 5 mM methyl-β-cyclodextrin (all from Sigma, Lyon, France). The cells were then incubated for 2 h at 37 °C with 1 µM MCaUF1-9-C-Cy5 in the presence of each drug. Flow cytometry analyses were performed with live cells using an Accuri C6 flow cytometer (BD Biosciences, Le Pont de Claix, France). Data were obtained and analyzed using CFlow Sampler (BD Biosciences). Live cells were gated by forward/side scattering from a total of 10,000 events.

[1] = cited from earlier work
Text: Even if the mechanism(s) of penetration of CPP are subject to debate, because of the rapidity of action of MCa on the ryanodine receptor, it appears clearly that one way of penetration of MCa can be membrane translocation. Furthermore, MCa has the ability to bind onto glycosaminoglycans, including heparin and heparan sulfates, with micromolar affinity.

[2] = high temperatures up to 100 °C or extreme pH values; cited from earlier work
Text: Maurocalcine (MCa) is a 33 amino acid residue peptide that was isolated in 2000 from the venom of the Tunisian chactid scorpion Scorpio maurus palmatus. It folds according to an ‘Inhibitor Cystine Knot’ (ICK) motif and contains three disulfide bridges connected by the following pattern: C1-C4, C2-C5 and C3-C6 [3]. Based on high amino acid sequence and pharmacological target similarities, MCa belongs to a larger family of scorpion toxins that also includes imperatoxin A (from Pandinus imperator), opicalcine 1 and opicalcine 2 (from Opistophthalmus carinatus), hemicalci ...

Row | Substance | fold decrease in cell penetration efficacy relative to MCaUF1-9-C-Cy5 (glioma F98 cells) [fold] | cell penetration compared with TAT-C-Cy5 as standard (glioma F98 cells; dose-response by flow cytometry) | affinity of binding onto glycosaminoglycans [1] | stability of structure against denaturation [2]
1 | MCaUF1-9(Q3)-C-Cy5: Abu3 replaced by Gln | 2.94 | behaved similarly to TAT | – | –
2 | MCaUF1-9(A3)-C-Cy5: Abu3 replaced by Ala | 1.08 | – | – | –
3 | Maurocalcine (GDCLPHLKLCKENKDCCSKKCKRRGTNIEKRCR; disulfide 10-21, 16-32, 3-17; UniProt P60254 1-33, looked up) [MCa] | – | – | micromolar | cannot be denatured

From PMC3816693, “Cell Penetration Properties of a Highly Efficient Mini Maurocalcine Peptide” (Pharmaceuticals, 2013)
